These are literature values, as cited in patent publication US20030175210A1, “Individualization of therapy with anxiolitics” (McGill University, priority 2001, published 2003).

One may read the half-life as the time needed for the level to fall by half in the phase considered.

SMILES strings stand for the structures.

The conditions of the data set: in vivo.

As for `O=C1Nc2ccc(Cl)cc2C(c2ccccc2Cl)=NC1O` (stereo not shown) [Lorazepam], the half-life was 10 to 15 h.
